Reference: patent US8815833B2, “Stable amifostine liquid concentrate” (Seidose, LLC, priority 2006, dated 2014)
In brackets after ≈: the same amount, converted by molar mass. Where two headings read alike, the source gives them in different places. Marks after values point to notes of the source that are not given here. Each block holds one compound with its values, some of them ahead of it.

What was measured:
[1] = cited from earlier work
[2] = Storage stability of amifostine solutions by stability indicating HPLC method (% remaining); assay type: physicochemical
Protocol: As will be seen below in Example 1, a 250 mg/ml liquid concentrate was prepared at pH 9, and 200 mg/ml liquid concentrates were prepared at pH 10.5, 11.5, 12.5 and 13. The stability was monitored at 40° C., 25° C. and 5° C. by a stability indicating HPLC method using the following HPLC conditions:
Solutions of amifostine at 200 mg/ml or 250 mg/ml were prepared at the pHs shown in the table below and stored at the temperatures indicated for the times indicated. “% remaining” in the table below is determined by the HPLC method described earlier in the specification.

[3] = Approximate concentration of ionic species as function of pH according to the pKa values; assay type: physicochemical
Text: There are four pKas for amifostine. The Merck Index lists them to be <2.0, 4.2, 9.0 and 11.7. The amino groups (2) and the phosphate group (2 pKa per group) can all be completely protonated. [Ref: Structure of Radio protective agent S-2(3-Aminoprpropylamino)ethylphosphorthioic acid (WR 2721) Jean Karle, Acta Cryst (1988) C44 135-138]. The usual form crystallized from solution is a double zwitterion with the phosphate completely dissociated (−2) and the amino groups fully protonated (+2). It is usually drawn with the amines in their free base form and the phosphate completely protonated but that is not how it exists in solution. So, the two pKa values from the double zwitterion are for the two amino functions ionizing (i.e., pKas 3 & 4). The first two pKas are for the phosphate which are perturbed by the two positive charges on the amino groups which pushes them lower than pKa1 and pKa2 for phosphoric acid. The following table describes the ionic nature of the compound as function of pH according to the pKa values reported in the Merck Index. The table also summarizes the approximate concentration of ionic species as function of pH:
(§1) At pH 9.0, 50% of the amifostine is present as the double zwitterion and 50% of amine 1 (primary amine) is present as the free base form making 50% of the amifostine have a net negative charge. At pH 10.0, only 10% of amifostine is present as a double zwitterion and the other 90% has a net negative charge; amine 1 is mainly in the free base form. […] Approximately 1% is present as the double zwitterion. More importantly, 17% of amifostine has both amines in the un-ionized form as free bases and this particular ionic species of the molecule carries about −2 charge. At this pH (11), it is observed that there is a significant improvement in the stability. […] At pH 13, over 95% of the amifostine is present with both amines in their free base forms with improved stability.

physchem = assay type: physicochemical; details: for crystallization of solution: 200 mg/ml solution
Protocol: Amifostine is a phospho ester compound that is used pharmacologically for the amelioration of side effects of radiation and chemotherapy. The compound is currently marketed as a lyophilizate of a crystalline trihydrate of amifostine, typically in vials of 500 mg, which is reconstituted to a final administration concentration of 5 to 40 mg/ml for IV infusion. […] Amifostine is known to undergo hydrolysis in aqueous solution at acidic, neutral, and mild basic conditions. Thus, it was believed that stable aqueous formulations that would not hydrolyze to any appreciable extent over typical storage time periods were not likely to be found. […] Thus, aqueous liquid concentrates of amifostine were simply thought not possible. Because such an aqueous liquid amifostine concentrate would eliminate a potential source of dosing errors in clinical practice, there is clearly a need for the same.
as §1

[4] = Hydrolysis of amifostine to free thiol metabolite as function of pH (stability evaluations); assay type: physicochemical
Text: At pH 7.4, the intrinsic pH, amifostine has a net neutral charge as a double zwitterion with the phosphate completely dissociated (−2) and the amino groups fully protonated (+2). During stability evaluations carried out for the purposes of the present invention it was observed that the hydrolysis of amifostine to release free thiol metabolite is rapid at acidic pH and even at weakly acidic pH. On the other hand, the hydrolysis was almost 100-fold slower at pH 10 and above.

[5] = Merck Index, cited from earlier work

SMILES: NCCCNCCSP(=O)(O)O [amifostine trihydrate]
crystallization of solution ([1]; about 200 mg/ml solution in water stored at refrigerated conditions): substantial crystallization results | aqueous solubility in water ([1]; ambient conditions): about 200 mg/ml

potency loss ([2]; 5° C., 180-day storage, pH 12.5 and 13 formulations): ≤ 3% | % remaining ([2]; pH 7.4, 200 mg/ml, 25° C., 7 days): 89% | % remaining ([2]; pH 7.4, 200 mg/ml, 25° C., 14 days): 78% | % remaining ([2]; pH 7.4, 200 mg/ml, 25° C., 25 days): 60% | % remaining ([2]; pH 7.4, 200 mg/ml, 25° C., 33 days): 52% | % remaining ([2]; pH 7.4, 200 mg/ml, 40° C., 2 days): 71% | % remaining ([2]; pH 7.4, 250 mg/ml, 40° C., 1 day): 84% | % remaining ([2]; pH 7.4, 250 mg/ml, 40° C., 2 days): 66% | % remaining ([2]; pH 7.4, 250 mg/ml, 40° C., 3 days): 57% | % remaining ([2]; pH 9.0, 250 mg/ml, 5° C., 90 days): 96% | % remaining ([2]; pH 9.0, 250 mg/ml, 5° C., 180 days): 91* % | % remaining ([2]; pH 9.0, 250 mg/ml, 25° C., 10 days): 83% | % remaining ([2]; pH 9.0, 250 mg/ml, 25° C., 25 days): 60% | % remaining ([2]; pH 9.0, 250 mg/ml, 40° C., 1 day): 83% | % remaining ([2]; pH 10.5, 200 mg/ml, 5° C., 90 days): 94% | % remaining ([2]; pH 10.5, 200 mg/ml, 5° C., 180 days): 90% | % remaining ([2]; pH 10.5, 200 mg/ml, 25° C., 10 days): 85% | % remaining ([2]; pH 10.5, 200 mg/ml, 25° C., 25 days): 62% | % remaining ([2]; pH 10.5, 200 mg/ml, 25° C., 35 days): 57% | % remaining ([2]; pH 10.5, 200 mg/ml, 25° C., 60 days): 39% | % remaining ([2]; pH 10.5, 200 mg/ml, 40° C., 1 day): 84% | % remaining ([2]; pH 10.5, 200 mg/ml, 40° C., 2 days): 75% | % remaining ([2]; pH 11.5, 200 mg/ml, 5° C., 90 days): 93% | % remaining ([2]; pH 11.5, 200 mg/ml, 5° C., 180 days): 92% | % remaining ([2]; pH 11.5, 200 mg/ml, 25° C., 10 days): 86% | % remaining ([2]; pH 11.5, 200 mg/ml, 25° C., 25 days): 64% | % remaining ([2]; pH 11.5, 200 mg/ml, 25° C., 60 days): 51% | % remaining ([2]; pH 11.5, 200 mg/ml, 40° C., 1 day): 90% | % remaining ([2]; pH 12.5, 200 mg/ml, 5° C., 90 days): 99% | % remaining ([2]; pH 12.5, 200 mg/ml, 5° C., 180 days): 97% | % remaining ([2]; pH 12.5, 200 mg/ml, 25° C., 10 days): 94% | % remaining ([2]; pH 12.5, 200 mg/ml, 25° C., 32 days): 86% | % remaining ([2]; pH 12.5, 200 mg/ml, 25° C., 60 days): 74% | % remaining ([2]; pH 12.5, 200 mg/ml, 40° C., 4 days): 77% | % remaining ([2]; pH 13.0, Batch #1, 200 mg/ml, 5° C., 90 days): 99% | % remaining ([2]; pH 13.0, Batch #1, 200 mg/ml, 5° C., 180 days): 98% | % remaining ([2]; pH 13.0, Batch #1, 200 mg/ml, 5° C., 270 days): 95% | % remaining ([2]; pH 13.0, Batch #1, 200 mg/ml, 25° C., 18 days): 96% | % remaining ([2]; pH 13.0, Batch #1, 200 mg/ml, 25° C., 36 days): 82% | % remaining ([2]; pH 13.0, Batch #1, 200 mg/ml, 25° C., 60 days): 74% | % remaining ([2]; pH 13.0, Batch #1, 200 mg/ml, 40° C., 4 days): 85-86% | % remaining ([2]; pH 13.0, Batch#2, 200 mg/ml, 5° C., 90 days): 100% | % remaining ([2]; pH 13.0, Batch#2, 200 mg/ml, 5° C., 180 days): 97% | % remaining ([2]; pH 13.0, Batch#2, 200 mg/ml, 5° C., 270 days): 95% | % remaining ([2]; pH 13.0, Batch#2, 200 mg/ml, 25° C., 18 days): 96% | % remaining ([2]; pH 13.0, Batch#2, 200 mg/ml, 25° C., 36 days): 82% | % remaining ([2]; pH 13.0, Batch#2, 200 mg/ml, 25° C., 90 days): 75% | % remaining ([2]; pH 13.0, batch #3, 200 mg/ml, 5° C., 90 days): 101% | % remaining ([2]; pH 13.0, batch #3, 200 mg/ml, 5° C., 180 days): 97% | % remaining ([2]; pH 13.0, batch #3, 200 mg/ml, 5° C., 270 days): 95% | % remaining ([2]; pH 13.0, batch #3, 200 mg/ml, 25° C., 18 days): 97% | % remaining ([2]; pH 13.0, batch #3, 200 mg/ml, 25° C., 36 days): 82% | % remaining ([2]; pH 13.0, batch #3, 200 mg/ml, 25° C., 90 days): 76% | Prim. amine (pKa 9.0) Protonated ([3]; pH 7): ~100% | Prim. amine (pKa 9.0) Unprotonated ([3]; pH 7): ~0% | Sec. amine (pKa 11.7) Protonated ([3]; pH 7): ~100% | Sec. amine (pKa 11.7) Unprotonated ([3]; pH 7): ~0% | Prim. amine (pKa 9.0) Protonated ([3]; pH 9): ~50% | Prim. amine (pKa 9.0) Unprotonated ([3]; pH 9): ~50% | Sec. amine (pKa 11.7) Protonated ([3]; pH 9): ~100% | Sec. amine (pKa 11.7) Unprotonated ([3]; pH 9): ~0% | amine 1 present as free base form, net negative charge ([3]; pH 9.0): 50% | present as the double zwitterion ([3]; pH 9.0): 50% | Prim. amine (pKa 9.0) Protonated ([3]; pH 10): ~10% | Prim. amine (pKa 9.0) Unprotonated ([3]; pH 10): ~90% | Sec. amine (pKa 11.7) Protonated ([3]; pH 10): ~100% | Sec. amine (pKa 11.7) Unprotonated ([3]; pH 10): ~0% | has a net negative charge (amine 1 free base) ([3]; pH 10.0): 90% | present as a double zwitterion ([3]; pH 10.0): 10% | Prim. amine (pKa 9.0) Protonated ([3]; pH 11): ~1% | Prim. amine (pKa 9.0) Unprotonated ([3]; pH 11): ~99% | Sec. amine (pKa 11.7) Protonated ([3]; pH 11): ~83% | Sec. amine (pKa 11.7) Unprotonated ([3]; pH 11): ~17% | both amines in the un-ionized form as free bases (about -2 charge) ([3]; pH 11.5 solution): 17% | present as the double zwitterion ([3]; pH 11.5 solution): Approximately 1% | Prim. amine (pKa 9.0) Protonated ([3]; pH 12): ~0.1% | Prim. amine (pKa 9.0) Unprotonated ([3]; pH 12): >99.9% | Sec. amine (pKa 11.7) Protonated ([3]; pH 12): ~33% | Sec. amine (pKa 11.7) Unprotonated ([3]; pH 12): ~67% | Prim. amine (pKa 9.0) Protonated ([3]; pH 13): ~0.01% | Prim. amine (pKa 9.0) Unprotonated ([3]; pH 13): 99.99%^ | Sec. amine (pKa 11.7) Protonated ([3]; pH 13): <5% | Sec. amine (pKa 11.7) Unprotonated ([3]; pH 13): >95% | present with both amines in their free base forms ([3]; pH 13): over 95% | crystallization of solution (physchem; below pH 10, refrigeration conditions): crystallizes out | solubility (physchem; 5 °C, pH 10, water): ~100 mg/mL (≈ 467 mM) | hydrolysis to release free thiol metabolite ([4]; acidic pH and even weakly acidic pH): rapid | hydrolysis slower than at acidic / weakly acidic pH ([4]; pH 10 and above): ~100 fold
SMILES: NCCCNCCSP(=O)(O)O [amifostine, S-2(3-Aminoprpropylamino)ethylphosphorthioic acid]
crystallization of solution (physchem; pH 10.0, refrigeration conditions): remained clear with no crystallization observed | pKa ([5]; first pKa (phosphate)): < 2.0 | pKa ([5]; fourth pKa (sec. amine, amine 2)): 11.7 | pKa ([5]; second pKa (phosphate)): 4.2 | pKa ([5]; third pKa (prim. amine, amine 1)): 9.0
